Data from patent US8673289B2, “Attenuated uracil auxotroph of an apicomplexan and use thereof” (priority 2007, dated 2014).

Key:
[1] = test system: mammalian CPSII; details: hamster CPSII; cited from earlier work
[2] = test system: FUDR-1 mutant parasites; test: labeling of FUDR-1 (UPRT knock-out) parasites with [3H]pyrimidines; format: cell-based, Toxoplasma gondii
Protocol: (§1) Initial experiments primarily involved an enzymatic analysis of drug resistant mutants and the incorporation of various pyrimidine analogs into T. gondii RNA and DNA as an indication of pyrimidine salvage when parasites were grown in either normal host or mutant host cells. All biochemical communications between the parasite and host cells cross the vacuolar membrane which is now known to contain “pores” that permit the passage of nucleobases ranging in molecular mass from 112 daltons up to 244 daltons. The size of the pores is estimated to be approximately 1500 daltons. A T. gondii mutant resistant to 5-fluorodeoxyuridine (FUDR-1) had lost uracil phosphoribosyltransferase (UPRT), an enzyme which is absent in normal host cells (Pfefferkorn (1978) Expt. Parasitol. 44:26-35). […] FUDR-1 mutant parasites were not labeled with [^3H]deoxyuridine. […] FUDR-1 mutant parasites were not labeled with [^3H]uridine. […] FUDR-1 (UPRT knock-out) parasites were not labeled with [^3H]uracil.

[3] = test system: cps1 and cps2 mutants; test: pyrimidine dependence of cps1 and cps2 replication and plaque formation; format: cell-based, Toxoplasma gondii; details: for rescue of growth rate / replication of cps1 and cps2: relatively low (thymine, thymidine: moderate) concentrations in medium
Source text: However, all of these mutants are somewhat “leaky” in that there was not an absolute growth (replication) dependence on uracil addition to the growth medium for replication. Each of these mutants grows at a moderate (½ of normal) growth rate for the first 2 days following infection of a host cell producing vacuoles that contained 16 to 32 parasites by 3 days post infection. In contrast, RH parasites are lysed out of their primary vacuoles at this time (3 days, >64 parasites). However, the cps mutants slow after 3 days and many parasites never (about ⅓) break out of their primary vacuole. If the primary vacuole breaks, a few parasites can be detected at the site of infection but the infection site always involves a small zone of infection that never forms a visible plaque in a standard 7 day plaque assay. To quantitate growth of these mutants, HFF flasks were inoculated with […] or cps2 parasites (about a multiplicity of infection (MOI) of 1 parasite per 20 HFF cells). After 2 hours of attachment and invasion (all of these mutants have normal attachment and invasion phenotypes as scored by counting percent entered parasites into host cells as a function of time post-inoculation), different concentrations of different pyrimidine compound was added to parallel infected HFF flasks. As a function of time post pyrimidine addition (t=0 hour) the number of parasites per vacuole was scored for 50 vacuoles as described by Fox et al. ((1999) supra). The number of parasite doublings was calculated based on 1 parasite entering each primary vacuole. Thus, 1 doubling=2 parasites per vacuole, 3 doublings=8 parasites per vacuole, and 5 doublings=32 parasites per vacuole. The pyrimidine dependence of cps1 and cps2 replication (doublings of parasites in the vacuole) was plotted graphically. […] The response to thymine and thymidine was additionally informative about the cause of the growth defect in cps1 and cps2. […] This is believed to be caused by the putative defect in the cps1 and cps2 mutants which is a reduced “pool” size of UMP. If UMP pools (ultimately used for RNA and DNA synthesis) are lowered it follows that a resulting decrease in TMP pools is expected since UMP is the precursor of TMP in T. gondii and all other apicomplexan parasites which normally lack TK activity. However, since cps1 and cps2 now express a TK activity carried into the parasite by the p53KOX3-1R plasmid, exemplified by sensitivity of these mutants to ganciclovir (specific to HSV TK), feeding parasites either thymine or thymidine is expected to increase TMP pools. Thus, it appears that moderate levels of thymine or thymidine partially rescue growth of cps1 and cps2 by restoring TMP pools. […] Since the parasite has no mechanism to convert TMP back to UMP there is still a defect in the UMP pool in cps1 and cps2 even with added thymine or thymidine and rescue is never complete. The ability of cps1 and cps2 mutants to form plaques on HFF monolayers in the standard 7 day assay paralleled the pyrimidine dependence of parasite replication in vacuoles.
The cps1 and cps2 mutants were inoculated intraperitoneally (i.p.) into balb/c mice to measure parasite virulence compared to virulent RH parasites. Both mutant cps1 and cps2 had equal virulence as RH parasites in balb/c mice (Jackson Labs), killing all mice within 10 days of i.p. inoculation (group size was four mice per parasite strain). Only 100 parasites (˜50 PFU) of each parasite strain was needed to kill all mice in each group. This pattern of virulence can be understood by re-examining the pyrimidine dependence of cps1 and cps2 growth. Uridine is believed to be the pyrimidine responsible for virulence of cps1 and cps2 in mice. Only 5 μM uridine completely rescues normal plaque size of cps1 and cps2 in vitro. Plasma concentrations of uridine in mice are approximately 5 to 10 μM.

[4] = test system: wild-type T. gondii; test: labeling of parasites with [3H]pyrimidines (pyrimidine salvage); format: cell-based, Toxoplasma gondii; details: parasites grown in host cells
Protocol: as §1
Similarly, since uracil only labels the parasite, due to the parasite UPRT, which is absent in the host, the pyrimidine pools of the parasite are also unavailable to the host. Thus, there is no detectable pyrimidine traffic detected between the parasite and host.

[5] = test system: cps1-1 and cps2-1; test: pyrimidine rescue of cps1-1 and cps2-1 replication and plaque formation; format: cell-based, Toxoplasma gondii; details: for rescue of replication (doublings) of cps1-1 and cps2-1: 36-hour replication assay, HFF; for rescue of plaque formation of cps1-1 and cps2-1: plaque assay
Protocol: No pyrimidine compound at less than 25 μM could rescue plaque formation of cps1-1 or cps2-1. […] Uridine was quite poor at rescue of plaque formation in cps1-1 and cps2-1.
A more detailed growth response to pyrimidine, measured as parasite replications (doublings) was performed for cps1-1 and cps2-1 and compared to the results previously obtained for […]. […] Uridine rescue was poor, with a slow restoration of growth at very high amounts, >400 μM. Deoxyuridine rescue was significant, but again, full growth rate was not restored at any concentration of deoxyuridine. Rescue with uracil was robust, but only in a limited range of concentration. Full restoration of growth rate in cps1-1 and cps2-1 was possible only with uracil added between 200 and 400 μM. […] This phenotype can only be observed in T. gondii pyrimidine auxotroph mutants, not in wild-type parasites with intact de novo pyrimidine synthesis pathways.
The pyrimidine growth dependence of mutant cps1-1 on the pyrimidine salvage pathway was further documented in thymidine interference experiments. Mutant cps1-1 plaques well in 250 μM uracil or deoxyuridine, but not in 1000 μM thymidine. Since thymidine at 1000 μM is known to inhibit approximately 90% of the parasite nucleoside phosphorylase activity specific for cleavage of deoxyuridine (Iltzsch, (1993) J. Euk. Micro. 40:24-28), growth of cps1-1 was tested in combinations of 1000 μM thymidine and 250 μM uracil or 250 μM deoxyuridine. All pyrimidine salvage in T. gondii must pass through uracil and UPRT conversion of uracil to UMP. In contrast, thymidine has no effect on UPRT activity. Thus, if growth of cps1-1 were dependent on deoxyuridine supplementation then replication in this condition may be inhibited by co-supplementing with 1000 μM thymidine. […] Thus, when cps1-1 is grown in deoxyuridine the parasite strictly requires nucleoside phosphorylase activity to cleave deoxyuridine for growth. […] Thus, cps1-1 and cps2-1 rely strictly on pyrimidine salvage enzymes for growth and further, the HFF host cell in vitro cannot supply sufficient pyrimidines for growth of cps1-1 or cps2-1. […] Such potential inhibitors can only be identified using a pyrimidine auxotroph such as provided in the instant invention.
To assess reversion, 10^6 to 10^7 cps1-1 or cps2-1 parasites were periodically inoculated into HFF flasks supplemented with 5 μM uridine. This concentration of uridine is sufficient to rescue the parent strains (cps1 and cps2) of cps1-1 and cps2-1.

[6] = test system: E. coli CPS; details: cited from earlier work

Molecule | rescue of growth rate / replication of cps1 and cps2 [3] | incorporation of [3H]-labeled pyrimidine into wild-type parasites [4] | rescue of replication (doublings) of cps1-1 and cps2-1 [5] | rescue of plaque formation of cps1-1 and cps2-1 [5] | also measured
H. a. S1345A: hamster CPSII with regulatory domain serine to alanine mutation | – | – | – | – | Effect on CPS or CPSII [1]: Reduces PRPP activation
O=c1ccn([C@H]2C[C@H](O)[C@@H](CO)O2)c(=O)[nH]1 [deoxyuridine] | completely rescued | incorporated into wild-type T. gondii | significant | significant growth rescue | labeling of FUDR-1 mutant parasites with [3H]pyrimidine [2]: not labeled; plaque formation of cps1-1 ([5]; 250 μM supplement): plaques well
Nc1cc[nH]c(=O)n1 [cytosine] | did not rescue at all | did not incorporate | remained as a single non-replicated parasite | – | –
O=c1ccn([C@@H]2O[C@H](CO)[C@@H](O)[C@H]2O)c(=O)[nH]1 [uridine] | completely rescued | incorporated into wild-type parasites | poor | quite poor | labeling of FUDR-1 mutant parasites with [3H]pyrimidine [2]: not labeled; uridine concentration that rescues cps1 and cps2 (normal plaque size) ([3]; in vitro): 5 µM; support of growth of cps1-1 or cps2-1 ([5]; 5 μM uridine): insufficient to support any growth; uridine concentration giving slow restoration of growth ([5]; cps1-1, cps2-1): > 400 µM
H. a. T456A: mammalian (hamster) CPSII with MAPK site mutation T456A | – | – | – | – | Effect on CPS or CPSII [1]: Abolishes MAPK activation
Nc1ccn([C@@H]2O[C@H](CO)[C@@H](O)[C@H]2O)c(=O)n1 [cytidine] | completely rescued | did not incorporate | remained as a single non-replicated parasite | – | –
Cc1c[nH]c(=O)[nH]c1=O [thymine] | partially rescued | did not incorporate | remained as a single non-replicated parasite | no response was detected | rescue of replication of cps1 and cps2 ([3]; very high concentrations): did not rescue replication
O=C(O)c1cc(=O)[nH]c(=O)[nH]1 [orotic acid] | – | did not incorporate | – | – | –
E. c. C269A: E. coli CPS with catalytic triad mutation C269A (protein, UniProt P0A6F1 1-382; P00968 2-1073, looked up, variant C269A, mutation in small subunit) Carbamoyl phosphate synthase … 1: MIKSALLVLEDGTQFHGRAIGATGSAVGEVVFNTSMTGYQEILTDPSYSRQIVTLTYPHIGNVGTNDADEESSQVHAQGLVIRDLPLIASNFRNTEDLSSYLKRHNIVAIADIDTRKLTRLLREKGAQNGCIIAGDNPDAALALEKARAFPGLNGMDLAKEVTTAEAYSWTQGSWTLTGGLPEAKKEDELPFHVVAYDFGAKRNILRMLVDRGCRLTIVPAQTSAEDVLKMNPDGIFLSNGPGDPAPCDYAITAIQKFLETDIPVFGIALGHQLLALASGAKTVKMKFGHHGGNHPVKDVEKNVVMITAQNHGFAVDEATLPANLRVTHKSLFDGTLQGIHRTDKPAFSFQGHPEASPGPHDAAPLFDHFIELIEQYRKTAK Carbamoyl phosphate synthase … 2: PKRTDIKSILILGAGPIVIGQACEFDYSGAQACKALREEGYRVILVNSNPATIMTDPEMADATYIEPIHWEVVRKIIEKERPDAVLPTMGGQTALNCALELERQGVLEEFGVTMIGATADAIDKAEDRRRFDVAMKKIGLETARSGIAHTMEEALAVAADVGFPCIIRPSFTMGGSGGGIAYNREEFEEICARGLDLSPTKELLIDESLIGWKEYEMEVVRDKNDNCIIVCSIENFDAMGIHTGDSITVAPAQTLTDKEYQIMRNASMAVLREIGVETGGSNVQFAVNPKNGRLIVIEMNPRVSRSSALASKATGFPIAKVAAKLAVGYTLDELMNDITGGRTPASFEPSIDYVVTKIPRFNFEKFAGANDRLTTQMKSVGEVMAIGRTQQESLQKALRGLEVGATGFDPKVSLDDPEALTKIRRELKDAGADRIWYIADAFRAGLSVDGVFNLTNIDRWFLVQIEELVRLEEKVAEVGITGLNADFLRQLKRKGFADARLAKLAGVREAEIRKLRDQYDLHPVYKRVDTCAAEFATDTAYMYSTYEEECEANPSTDREKIMVLGGGPNRIGQGIEFDYCCVHASLALREDGYETIMVNCNPETVSTDYDTSDRLYFEPVTLEDVLEIVRIEKPKGVIVQYGGQTPLKLARALEAAGVPVIGTSPDAIDRAEDRERFQHAVERLKLKQPANATVTAIEMAVEKAKEIGYPLVVRPSYVLGGRAMEIVYDEADLRRYFQTAVSVSNDAPVLLDHFLDDAVEVDVDAICDGEMVLIGGIMEHIEQAGVHSGDSACSLPAYTLSQEIQDVMRQQVQKLAFELQVRGLMNVQFAVKNNEVYLIEVNPRAARTVPFVSKATGVPLAKVAARVMAGKSLAEQGVTKEVIPPYYSVKEVVLPFNKFPGVDPLLGPEMRSTGEVMGVGRTFAEAFAKAQLGSNSTMKKHGRALLSVREGDKERVVDLAAKLLKQGFELDATHGTAIVLGEAGINPRLVNKVHEGRPHIQDRIKNGEYTYIINTTSGRRAIEDSRVIRRSALQYKVHYDTTLNGGFATAMALNADATEKVISVQEMHAQIK | – | – | – | – | Effect on CPS or CPSII [6]: Abolishes GATase activity
